How the values were obtained:
rFAAH = biological target: T1, rFAAH (Rattus norvegicus, UniProt P97612); test: FAAH assay, rFAAH kobs/I; format: biochemical; settings: additional data table, unit not given
T1 sequence (P97612 1-579): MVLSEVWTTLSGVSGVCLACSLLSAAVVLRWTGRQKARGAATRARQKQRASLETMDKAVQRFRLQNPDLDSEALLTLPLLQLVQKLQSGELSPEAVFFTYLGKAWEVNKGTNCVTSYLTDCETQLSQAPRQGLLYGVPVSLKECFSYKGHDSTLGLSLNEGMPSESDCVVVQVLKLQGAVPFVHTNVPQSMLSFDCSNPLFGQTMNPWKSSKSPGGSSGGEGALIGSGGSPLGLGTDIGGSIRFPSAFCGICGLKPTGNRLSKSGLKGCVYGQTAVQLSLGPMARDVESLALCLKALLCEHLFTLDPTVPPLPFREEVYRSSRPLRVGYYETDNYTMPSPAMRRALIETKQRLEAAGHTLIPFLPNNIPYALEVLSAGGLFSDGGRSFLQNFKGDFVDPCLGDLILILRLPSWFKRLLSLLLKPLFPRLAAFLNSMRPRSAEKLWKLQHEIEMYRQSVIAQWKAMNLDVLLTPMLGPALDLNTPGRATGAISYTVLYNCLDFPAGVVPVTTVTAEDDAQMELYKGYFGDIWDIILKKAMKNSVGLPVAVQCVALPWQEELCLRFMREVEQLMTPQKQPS

Human FAAH = biological target: T2, Human FAAH (Homo sapiens, UniProt O00519); test: FAAH assay, kinetic analysis of irreversible inhibition (kinact/Ki); format: biochemical; settings: additional data table, unit inferred, read-out: hFAAH_Kinact/Ki
T2 construct: made in house
T2 sequence (O00519 32-579 limits assumed): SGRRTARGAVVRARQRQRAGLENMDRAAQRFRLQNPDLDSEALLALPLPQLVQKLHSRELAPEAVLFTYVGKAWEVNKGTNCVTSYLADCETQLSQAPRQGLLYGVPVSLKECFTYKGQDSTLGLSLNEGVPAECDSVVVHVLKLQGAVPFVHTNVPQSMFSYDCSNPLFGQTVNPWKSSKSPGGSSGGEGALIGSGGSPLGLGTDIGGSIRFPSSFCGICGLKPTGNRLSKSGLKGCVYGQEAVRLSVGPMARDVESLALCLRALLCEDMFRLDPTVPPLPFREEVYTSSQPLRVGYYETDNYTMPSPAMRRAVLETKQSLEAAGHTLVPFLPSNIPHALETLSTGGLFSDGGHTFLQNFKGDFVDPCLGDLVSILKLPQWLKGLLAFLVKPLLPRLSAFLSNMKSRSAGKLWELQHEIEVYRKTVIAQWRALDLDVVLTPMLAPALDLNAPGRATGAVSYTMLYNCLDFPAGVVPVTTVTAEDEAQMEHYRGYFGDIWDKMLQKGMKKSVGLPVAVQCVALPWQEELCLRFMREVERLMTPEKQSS
Experimental: A FAAH assay may be carried out in 384-well clear polystyrene plates in a total volume of 50 μl per well. All percents are by volume. To each well is placed the reaction mixture (40 μl) containing 1-4 nM FAAH, 50 mM NaPi, pH 7.4, 3 mM α-ketoglutarate, 0.15 mM NADH, 7.5 U/ml glutamate dehydrogenase, 2 mM ADP, 1 mM EDTA, and 0.1% Triton X-100 (The concentration shown for each component is the final concentration in the assay). To this mixture is added 5 μl of a compound of Examples 1 to 20 at various concentrations prepared in 50% DMSO (or 5 μl 50% DMSO for controls). This is immediately followed by the addition of 5 μl oleamide (500 μM) dissolved in […] and the reaction mixture is mixed for 1.5 min. The final concentrations of DMSO and EtOH in the assay are each 7.5%. The reactions is then incubated at 30° C. and the absorbance at 340 nm is collected over a period of 90 min with readings taken in 30-second intervals using SpectraMax Plus^384 Microplate Spectrophotometer (Molecular Devices, Sunnyvale, Calif.). Human FAAH used in the assay is prepared as described in the patent application WO 2006/067613. The purity of the enzyme used is preferably greater than 98% based on an analysis by SDS-polyacrylamide gel electrophoresis followed by Coomassie Blue staining.
Initial velocity data (V) is obtained from the slopes of the initial progressive curves. They are plotted as a function of substrate concentration and fit to the Michaelis-Menten equation (1) using Prism (GraphPad Software, Inc., San Diego, Calif.) software to obtain Km and Vmax values.
To obtain potencies of irreversible inhibitors, progressive curves consistent with first order inhibition kinetics (two-step irreversible inhibition mechanism) are fit to equation (2) by nonlinear least squares regressions to determine kobs values at each inhibitor concentration, where [P]t is the absorbance at time t, V0 is a constant related to the steady state rate of the uninhibited reaction, and kobs is the first order rate constant for enzyme inactivation. The inhibitor dissociation constant (Ki) and the first order rate
constant of enzyme inactivation at infinite inhibitor concentration (kinact) are then obtained by fitting the kobs vs. [I] curves to equation (3).

Row | SMILES | FAAH_KINACTR:rFAAH:kobs/I (rFAAH) | kinact/KI (Human FAAH) [M⁻¹ s⁻¹]
1 | Cc1noc(NC(=O)N2CCC(=Cc3cccc(OCCc4ccc(F)cc4)c3)CC2)c1C [N-(3,4-dimethylisoxazol-5-yl)-4-{3-[2-(4-fluorophenyl)ethoxy]benzylidene}piperidine-1-carboxamide] | 7550 | 12800
2 | Cc1oncc1NC(=O)N1CCC(=Cc2cccc(OCCc3cccc(F)c3)c2)CC1 [4-{3-[2-(3-fluorophenyl)ethoxy]benzylidene}-N-(5-methylisoxazol-4-yl)piperidine-1-carboxamide] | 59.9 | 11000
3 | Cc1ncsc1CCOc1cccc(C=C2CCN(C(=O)Nc3onc(C)c3C)CC2)c1 [N-(3,4-dimethylisoxazol-5-yl)-4-{3-[2-(4-methyl-1,3-thiazol-5-yl)ethoxy]benzylidene}piperidine-1-carboxamide] | 1920 | 4920
4 | Cc1cccc(OCCOc2cccc(C=C3CCN(C(=O)Nc4onc(C)c4C)CC3)c2)c1 [N-(3,4-dimethylisoxazol-5-yl)-4-{3-[2-(3-methylphenoxy)ethoxy]benzylidene}piperidine-1-carboxamide] | 7840 | 13900
5 | Cc1oncc1NC(=O)N1CCC(=Cc2cccc(OCCCC(F)(F)F)c2)CC1 [N-(5-methylisoxazol-4-yl)-4-[3-(4,4,4-trifluorobutoxy)benzylidene]piperidine-1-carboxamide] | <10.0 | 7410
6 | Cc1noc(NC(=O)N2CCC(=Cc3cccc(OCCCC(F)(F)F)c3)CC2)c1C [N-(3,4-dimethylisoxazol-5-yl)-4-[3-(4,4,4-trifluorobutoxy)benzylidene]piperidine-1-carboxamide] | 1540 | 12900
7 | CCCCOc1cccc(C=C2CCN(C(=O)Nc3cnoc3C)CC2)c1 [4-(3-butoxybenzylidene)-N-(5-methylisoxazol-4-yl)piperidine-1-carboxamide] | 12.9 | 2120
8 | Cc1noc(NC(=O)N2CCC(=Cc3cccc(OCCc4cccc(F)c4)c3)CC2)c1C [N-(3,4-dimethylisoxazol-5-yl)-4-{3-[2-(3-fluorophenyl)ethoxy]benzylidene}piperidine-1-carboxamide] | 9280 | 12100
9 | Cc1noc(NC(=O)N2CCC(=Cc3cccc(OCC(C)CC(F)(F)F)c3)CC2)c1C (stereo not shown) [N-(3,4-dimethylisoxazol-5-yl)-4-[3-(4,4,4-trifluoro-2-methylbutoxy)benzylidene]piperidine-1-carboxamide] | 2530 | 5190
10 | Cc1noc(NC(=O)N2CCC(=Cc3cccc(OCCOC(C)C)c3)CC2)c1C [N-(3,4-dimethylisoxazol-5-yl)-4-[3-(2-isopropoxyethoxy)benzylidene]piperidine-1-carboxamide] | 4760 | 12700
11 | Cc1oncc1NC(=O)N1CCC(=Cc2cccc(OC(C)Cc3ccccc3)c2)CC1 (stereo not shown) [N-(5-methylisoxazol-4-yl)-4-[3-(1-methyl-2-phenylethoxy)benzylidene]piperidine-1-carboxamide] | 208 | 2150
12 | Cc1noc(NC(=O)N2CCC(=Cc3cccc(OC4CCC(F)(F)CC4)c3)CC2)c1C [4-{3-[(4,4-difluorocyclohexyl)oxy]benzylidene}-N-(3,4-dimethylisoxazol-5-yl)piperidine-1-carboxamide] | 1750 | 2540
13 | Cc1noc(NC(=O)N2CCC(=Cc3cccc(OCCC(C)C)c3)CC2)c1C [N-(3,4-dimethylisoxazol-5-yl)-4-[3-(3-methylbutoxy)benzylidene]piperidine-1-carboxamide] | 2590 | 7710

Further lines, results first:

Row | FAAH_KINACTR:rFAAH:kobs/I (rFAAH) | kinact/KI (Human FAAH) [M⁻¹ s⁻¹] | SMILES
14 | <13.2 | 3990 | Cc1oncc1NC(=O)N1CCC(=Cc2cccc(OCCCc3cnoc3)c2)CC1 [4-[3-(3-isoxazol-4-ylpropoxy)benzylidene]-N-(5-methylisoxazol-4-yl)piperidine-1-carboxamide]
15 | 2360 | 5110 | Cc1noc(NC(=O)N2CCC(=Cc3cccc(OCC4CCCC4)c3)CC2)c1C [4-[3-(cyclopentylmethoxy)benzylidene]-N-(3,4-dimethylisoxazol-5-yl)piperidine-1-carboxamide]
16 | <10.0 | 514 | Cc1ncsc1CCOc1cccc(C=C2CCN(C(=O)Nc3cnoc3)CC2)c1 [N-isoxazol-4-yl-4-{3-[2-(4-methyl-1,3-thiazol-5-yl)ethoxy]benzylidene}piperidine-1-carboxamide]
17 | 16.2 | 1730 | Cc1oncc1NC(=O)N1CCC(=Cc2cccc(OCC3CCC(F)(F)CC3)c2)CC1 [4-{3-[(4,4-difluorocyclohexyl)methoxy]benzylidene}-N-(5-methylisoxazol-4-yl)piperidine-1-carboxamide]
18 | 19.8 | 2900 | Cc1oncc1NC(=O)N1CCC(=Cc2cccc(OC3CCC(F)(F)CC3)c2)CC1 [4-{3-[(4,4-difluorocyclohexyl)oxy]benzylidene}-N-(5-methylisoxazol-4-yl)piperidine-1-carboxamide]
19 | 18 | 384 | O=C(Nc1cnoc1)N1CCC(=Cc2cccc(OCC3CCCCO3)c2)CC1 (stereo not shown) [N-isoxazol-4-yl-4-[3-(tetrahydro-2H-pyran-2-ylmethoxy)benzylidene]piperidine-1-carboxamide]
20 | 52.7 | 1480 | Cc1oncc1NC(=O)N1CCC(=Cc2cccc(OCCc3ccc(F)cc3)c2)CC1 [4-{3-[2-(4-fluorophenyl)ethoxy]benzylidene}-N-(5-methylisoxazol-4-yl)piperidine-1-carboxamide]
21 | <10.0 | 838 | Cc1oncc1NC(=O)N1CCC(=Cc2cccc(OCC3CCCC3)c2)CC1 [4-[3-(cyclopentylmethoxy)benzylidene]-N-(5-methylisoxazol-4-yl)piperidine-1-carboxamide]
22 | 1610 | 7490 | Cn1nnnc1NC(=O)N1CCC(=Cc2cccc(OCC3CCCCO3)c2)CC1 (stereo not shown) [N-(1-methyl-1H-tetrazol-5-yl)-4-[3-(tetrahydro-2H-pyran-2-ylmethoxy)benzylidene]piperidine-1-carboxamide]
23 | <12.6 | 2670 | Cc1oncc1NC(=O)N1CCC(=Cc2cccc(OCCOC(C)C)c2)CC1 [4-[3-(2-isopropoxyethoxy)benzylidene]-N-(5-methylisoxazol-4-yl)piperidine-1-carboxamide]
